Results as given in PubChem BioAssay AID270 (DTP/NCI, 2004).
“And” between values parts separate entries of the source, which are not always exact repeats. Equal values may be shown once. Records with an inconclusive call do not appear.

System: BDF1 mice, s.c. Lewis lung carcinoma, T/C %
Assay: NCI In Vivo Anticancer Drug Screen. Data for tumor model Lewis Lung Carcinoma (subcutaneous) in B6D2F1 (BDF1) mice
How it was run: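 Readout: survival or tumor size, expressed as treated (T) over vehicle control (C). Transplantable tumor implanted in mice; compound given to the treated group.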

[1] = endpoint: median survival time, dose: 6.25 mg/kg/injection, schedule: Q01DX009 (ip), vehicle: saline, higher = longer survival
[2] = endpoint: mean tumor weight, dose: 50.0 mg/kg/injection, schedule: Q01DX011 (ip), vehicle: other, higher = larger tumour

With `CN(C)c1ccc(C(N)=O)cn1` the T/C (endpoint: mean tumor weight, dose: 1.5 mg/kg/injection, schedule: Q01DX011 (ip), vehicle: saline, higher = larger tumour) was 100 % of control, the T/C (endpoint: mean tumor weight, dose: 3.0 mg/kg/injection, schedule: Q01DX011 (ip), vehicle: saline, higher = larger tumour) was 63 % of control and the T/C (endpoint: mean tumor weight, dose: 6.0 mg/kg/injection, schedule: Q01DX011 (ip), vehicle: saline, higher = larger tumour) was 36 % of control.
`COc1cc(-c2ccc(Nc3ccccc3C(=O)O)c(OC)c2)ccc1N` was tested, and the T/C (endpoint: mean tumor weight, dose: 10.0 mg/kg/injection, schedule: Q01DX011 (ip), vehicle: carboxymethylcellulose (CMC), higher = larger tumour) was 86 % of control, the T/C (endpoint: mean tumor weight, dose: 20.0 mg/kg/injection, schedule: Q01DX011 (ip), vehicle: carboxymethylcellulose (CMC), higher = larger tumour) was 72 % of control and the T/C (endpoint: mean tumor weight, dose: 40.0 mg/kg/injection, schedule: Q01DX011 (ip), vehicle: carboxymethylcellulose (CMC), higher = larger tumour) was 37 % of control.
For `CCCCCCCCCCCCCCCC(=O)OCC1OC(n2ccc(N)nc2=O)C(O)C1O` (configuration not stated), the T/C (endpoint: median tumor weight (est.), dose: 12.0 mg/kg/injection, schedule: Q01DX015 (ip), vehicle: saline with Tween-80, higher = larger tumour) was 54 % of control, the T/C (endpoint: median tumor weight (est.), dose: 18.0 mg/kg/injection, schedule: Q01DX015 (ip), vehicle: saline with Tween-80, higher = larger tumour) was 66 % of control and the T/C (endpoint: median tumor weight (est.), dose: 27.0 mg/kg/injection, schedule: Q01DX015 (ip), vehicle: saline with Tween-80, higher = larger tumour) was 59 % of control.
For `CC(C)(c1ccccc1)c1ccc(O)cc1`, the T/C (endpoint: mean tumor weight, dose: 45.0 mg/kg/injection, schedule: Q01DX011 (ip), vehicle: carboxymethylcellulose (CMC), higher = larger tumour) was 82 % of control and the T/C (endpoint: mean tumor weight, dose: 65.0 mg/kg/injection, schedule: Q01DX011 (ip), vehicle: carboxymethylcellulose (CMC), higher = larger tumour) was 60 % of control.
With `O=P(NC12CC3CC(CC(C3)C1)C2)(N1CC1)N1CC1` the T/C (endpoint: median survival time, dose: 0.25 mg/kg/injection, schedule: Q01DX009 (ip), vehicle: Klucel (hydroxypropylcellulose) (HPC), higher = longer survival) was 86 % of control, the T/C (endpoint: median survival time, dose: 0.5 mg/kg/injection, schedule: Q01DX009 (ip), vehicle: Klucel (hydroxypropylcellulose) (HPC), higher = longer survival) was 117 % of control and the T/C (endpoint: median survival time, dose: 1.0 mg/kg/injection, schedule: Q01DX009 (ip), vehicle: Klucel (hydroxypropylcellulose) (HPC), higher = longer survival) was 92 % of control. For the same compound, the T/C (endpoint: median survival time, dose: 2.0 mg/kg/injection, schedule: Q01DX009 (ip), vehicle: Klucel (hydroxypropylcellulose) (HPC), higher = longer survival) was 104 % of control and the T/C (endpoint: median survival time, dose: 4.0 mg/kg/injection, schedule: Q01DX009 (ip), vehicle: Klucel (hydroxypropylcellulose) (HPC), higher = longer survival) was 101 % of control.
`CC1CCC2(OC1)OC1C(O)C3C4CCC5CC(OC6OC(CO)C(OC7OC(CO)C(O)C(OC8OCC(O)C(O)C8O)C7OC7OC(CO)C(O)C(OC8OC(CO)C(O)C(O)C8O)C7O)C(O)C6O)C(O)CC5(C)C4CCC3(C)C1C2C` (configuration not stated) was tested, and the T/C (endpoint: mean tumor weight, dose: 6.2 mg/kg/injection, schedule: Q01DX011 (ip), vehicle: carboxymethylcellulose (CMC), higher = larger tumour) was 47 % of control and 58 % of control, the T/C (endpoint: mean tumor weight, dose: 12.5 mg/kg/injection, schedule: Q01DX011 (ip), vehicle: carboxymethylcellulose (CMC), higher = larger tumour) was 93 % of control and 98 % of control and the T/C (endpoint: median survival time, dose: 1.25 mg/kg/injection, schedule: Q01DX009 (ip), vehicle: saline, higher = longer survival) was 115 % of control. For the same compound, the T/C (endpoint: median survival time, dose: 2.5 mg/kg/injection, schedule: Q01DX009 (ip), vehicle: saline, higher = longer survival) was 122 % of control and the T/C (endpoint: median survival time, dose: 5.0 mg/kg/injection, schedule: Q01DX009 (ip), vehicle: saline, higher = longer survival) was 111 % of control.
For `CC1CN1P(=O)(N1CC1C)N1CC1C` (configuration not stated), the T/C [1] was 98 % of control, the T/C (endpoint: median survival time, dose: 12.5 mg/kg/injection, schedule: Q01DX009 (ip), vehicle: saline, higher = longer survival) was 90 % of control and the T/C (endpoint: median survival time, dose: 25.0 mg/kg/injection, schedule: Q01DX009 (ip), vehicle: saline, higher = longer survival) was 89 % of control.
`O=S(=O)(c1ccc(NC(=S)N/N=C/c2ccccc2O)cc1)N1CCCCC1` was tested, and the T/C (endpoint: median survival time, dose: 12.5 mg/kg/injection, schedule: Q01DX009 (ip), vehicle: olive oil, sesame oil, peanut oil, higher = longer survival) was 98 % of control, the T/C (endpoint: median survival time, dose: 25.0 mg/kg/injection, schedule: Q01DX009 (ip), vehicle: olive oil, sesame oil, peanut oil, higher = longer survival) was 90 % of control and the T/C (endpoint: median survival time, dose: 50.0 mg/kg/injection, schedule: Q01DX009 (ip), vehicle: olive oil, sesame oil, peanut oil, higher = longer survival) was 87 % of control. The T/C (endpoint: median survival time, dose: 200.0 mg/kg/injection, schedule: Q01DX009 (ip), vehicle: olive oil, sesame oil, peanut oil, higher = longer survival) was 91 % of control.
For `CCCCOC(=O)Nc1ccc(OCC)cc1`, the T/C (endpoint: mean tumor weight, dose: 35.0 mg/kg/injection, schedule: Q01DX011 (ip), vehicle: carboxymethylcellulose (CMC), higher = larger tumour) was 63 % of control, the T/C (endpoint: mean tumor weight, dose: 70.0 mg/kg/injection, schedule: Q01DX011 (ip), vehicle: carboxymethylcellulose (CMC), higher = larger tumour) was 85 % of control and the T/C (endpoint: mean tumor weight, dose: 140.0 mg/kg/injection, schedule: Q01DX011 (ip), vehicle: carboxymethylcellulose (CMC), higher = larger tumour) was 68 % of control. For the same compound, the T/C (endpoint: mean tumor weight, dose: 280.0 mg/kg/injection, schedule: Q01DX011 (ip), vehicle: carboxymethylcellulose (CMC), higher = larger tumour) was 69 % of control.
For `O=C(O)C(=O)c1ccc(-c2ccccc2)cc1`, the T/C (endpoint: mean tumor weight, dose: 35.0 mg/kg/injection, schedule: Q01DX011 (ip), vehicle: methylcellulose (MC), higher = larger tumour) was 82 % of control, the T/C (endpoint: mean tumor weight, dose: 50.0 mg/kg/injection, schedule: Q01DX011 (ip), vehicle: methylcellulose (MC), higher = larger tumour) was 68 % of control and the T/C (endpoint: mean tumor weight, dose: 75.0 mg/kg/injection, schedule: Q01DX011 (ip), vehicle: methylcellulose (MC), higher = larger tumour) was 52 % of control. For the same compound, the T/C (endpoint: mean tumor weight, dose: 110.0 mg/kg/injection, schedule: Q01DX011 (ip), vehicle: methylcellulose (MC), higher = larger tumour) was 52 % of control.
For `CC1(C)N=C(N)N=C(N)N1c1cccc(Br)c1`, the T/C [2] was 16 % of control.
`CC(C)=CCC/C(C)=C\CC/C(C)=C/CO` was tested, and the T/C (endpoint: mean tumor weight, dose: 6.25 mg/kg/injection, schedule: Q01DX011 (ip), vehicle: saline, higher = larger tumour) was 85 % of control, the T/C (endpoint: mean tumor weight, dose: 12.5 mg/kg/injection, schedule: Q01DX011 (ip), vehicle: saline, higher = larger tumour) was 50 % of control and the T/C (endpoint: mean tumor weight, dose: 25.0 mg/kg/injection, schedule: Q01DX011 (ip), vehicle: saline, higher = larger tumour) was 67 % of control. The T/C (endpoint: mean tumor weight, dose: 50.0 mg/kg/injection, schedule: Q01DX011 (ip), vehicle: saline, higher = larger tumour) was 95 % of control.
`O=NN(CCCl)C(=O)NC1CCC(O)CC1` (configuration not stated) was tested, and the T/C (endpoint: median survival time, dose: 10.0 mg/kg/injection, schedule: Q01DX001 (ip), vehicle: Klucel (hydroxypropylcellulose) (HPC), higher = longer survival) was 104 % of control, the T/C (endpoint: median survival time, dose: 10.0 mg/kg/injection, schedule: Q01DX001 (ip), vehicle: other, higher = longer survival) was 112 % of control and 119 % of control and the T/C (endpoint: median survival time, dose: 20.0 mg/kg/injection, schedule: Q01DX001 (ip), vehicle: Klucel (hydroxypropylcellulose) (HPC), higher = longer survival) was 105 % of control. The T/C (endpoint: median survival time, dose: 20.0 mg/kg/injection, schedule: Q01DX001 (ip), vehicle: other, higher = longer survival) was 105 % of control, the T/C (endpoint: median survival time, dose: 40.0 mg/kg/injection, schedule: Q01DX001 (ip), vehicle: Klucel (hydroxypropylcellulose) (HPC), higher = longer survival) was 186 % of control and the T/C (endpoint: median survival time, dose: 40.0 mg/kg/injection, schedule: Q01DX001 (ip), vehicle: other, higher = longer survival) was 202 % of control. For the same compound, the T/C (endpoint: median survival time, dose: 80.0 mg/kg/injection, schedule: Q01DX001 (ip), vehicle: Klucel (hydroxypropylcellulose) (HPC), higher = longer survival) was 108 % of control.
With `Clc1cccc(Br)c1` the T/C (endpoint: mean tumor weight, dose: 25.0 mg/kg/injection, schedule: Q01DX011 (ip), vehicle: other, higher = larger tumour) was 95 % of control, the T/C [2] was 81 % of control and the T/C (endpoint: mean tumor weight, dose: 100.0 mg/kg/injection, schedule: Q01DX011 (ip), vehicle: other, higher = larger tumour) was 58 % of control. For the same compound, the T/C (endpoint: mean tumor weight, dose: 200.0 mg/kg/injection, schedule: Q01DX011 (ip), vehicle: other, higher = larger tumour) was 30 % of control.
For `CC/C(C)=C1\OC(=O)C(C)C(O)C(Cc2cccnc2)NC(=O)C(NC(=O)c2ncccc2O)C(C)OC1=O` (configuration not stated), the T/C (endpoint: median survival time, dose: 6.25 mg/kg/injection, schedule: Q01DX009 (ip), vehicle: saline with Tween-80, higher = longer survival) was 92 % of control and the T/C (endpoint: median survival time, dose: 12.5 mg/kg/injection, schedule: Q01DX009 (ip), vehicle: saline with Tween-80, higher = longer survival) was 98 % of control.
For `Cn1cnc([N+](=O)[O-])c1Sc1nc(N)nc2c1ncn2C1OC(CO)C(O)C1O` (configuration not stated), the T/C (endpoint: mean tumor weight, dose: 1.0 mg/kg/injection, schedule: Q01DX011 (ip), vehicle: other, higher = larger tumour) was 76 % of control, the T/C (endpoint: mean tumor weight, dose: 2.0 mg/kg/injection, schedule: Q01DX011 (ip), vehicle: other, higher = larger tumour) was 64 % of control and the T/C (endpoint: mean tumor weight, dose: 4.0 mg/kg/injection, schedule: Q01DX011 (ip), vehicle: other, higher = larger tumour) was 42 % of control. For the same compound, the T/C (endpoint: mean tumor weight, dose: 8.0 mg/kg/injection, schedule: Q01DX011 (ip), vehicle: other, higher = larger tumour) was 18 % of control and 38 % of control and the T/C (endpoint: mean tumor weight, dose: 16.0 mg/kg/injection, schedule: Q01DX011 (ip), vehicle: other, higher = larger tumour) was 37 % of control.
With `CO/[N+]([O-])=C\C(=O)N/C=C/C(=O)O` the T/C (endpoint: mean tumor weight, dose: 22.0 mg/kg/injection, schedule: Q01DX011 (ip), vehicle: carboxymethylcellulose (CMC), higher = larger tumour) was 80 % of control and the T/C (endpoint: mean tumor weight, dose: 33.0 mg/kg/injection, schedule: Q01DX011 (ip), vehicle: carboxymethylcellulose (CMC), higher = larger tumour) was 57 % of control.
For `N=C(N)c1ccc(OCCCOc2ccc(C(=N)N)cc2Br)c(Br)c1`, the T/C [1] was 122 % of control.
